According to patent publication US20120004405A1, “COMPOUNDS HAVING ACTIVITY IN CORRECTING MUTANT CFTR CELLULAR PROCESSING” (priority 2008, published 2012):
Entries after “also recorded” stand apart in the source; their conditions may differ.

Tests used:
ΔF508-CFTR [1] = target: T1, ΔF508-CFTR (Homo sapiens, UniProt P13569, DEL508-508); assay: Iodide efflux from ΔF508-CFTR epithelial cells; format: cell-based; conditions: for iodide efflux from ΔF508-CFTR epithelial cells: iodide-loaded cells, compound added at time point 0, iodide sensitive electrode
T1 construct: Human epithelial cells containing wildtype (A) or ΔF508-CFTR (B); endogenous in cells; host or cells: CFBE14o- human epithelial cells (provided by Dr. D. C. Gruenert)
T1 sequence (P13569 with tags, fused parts or gaps DEL508-508): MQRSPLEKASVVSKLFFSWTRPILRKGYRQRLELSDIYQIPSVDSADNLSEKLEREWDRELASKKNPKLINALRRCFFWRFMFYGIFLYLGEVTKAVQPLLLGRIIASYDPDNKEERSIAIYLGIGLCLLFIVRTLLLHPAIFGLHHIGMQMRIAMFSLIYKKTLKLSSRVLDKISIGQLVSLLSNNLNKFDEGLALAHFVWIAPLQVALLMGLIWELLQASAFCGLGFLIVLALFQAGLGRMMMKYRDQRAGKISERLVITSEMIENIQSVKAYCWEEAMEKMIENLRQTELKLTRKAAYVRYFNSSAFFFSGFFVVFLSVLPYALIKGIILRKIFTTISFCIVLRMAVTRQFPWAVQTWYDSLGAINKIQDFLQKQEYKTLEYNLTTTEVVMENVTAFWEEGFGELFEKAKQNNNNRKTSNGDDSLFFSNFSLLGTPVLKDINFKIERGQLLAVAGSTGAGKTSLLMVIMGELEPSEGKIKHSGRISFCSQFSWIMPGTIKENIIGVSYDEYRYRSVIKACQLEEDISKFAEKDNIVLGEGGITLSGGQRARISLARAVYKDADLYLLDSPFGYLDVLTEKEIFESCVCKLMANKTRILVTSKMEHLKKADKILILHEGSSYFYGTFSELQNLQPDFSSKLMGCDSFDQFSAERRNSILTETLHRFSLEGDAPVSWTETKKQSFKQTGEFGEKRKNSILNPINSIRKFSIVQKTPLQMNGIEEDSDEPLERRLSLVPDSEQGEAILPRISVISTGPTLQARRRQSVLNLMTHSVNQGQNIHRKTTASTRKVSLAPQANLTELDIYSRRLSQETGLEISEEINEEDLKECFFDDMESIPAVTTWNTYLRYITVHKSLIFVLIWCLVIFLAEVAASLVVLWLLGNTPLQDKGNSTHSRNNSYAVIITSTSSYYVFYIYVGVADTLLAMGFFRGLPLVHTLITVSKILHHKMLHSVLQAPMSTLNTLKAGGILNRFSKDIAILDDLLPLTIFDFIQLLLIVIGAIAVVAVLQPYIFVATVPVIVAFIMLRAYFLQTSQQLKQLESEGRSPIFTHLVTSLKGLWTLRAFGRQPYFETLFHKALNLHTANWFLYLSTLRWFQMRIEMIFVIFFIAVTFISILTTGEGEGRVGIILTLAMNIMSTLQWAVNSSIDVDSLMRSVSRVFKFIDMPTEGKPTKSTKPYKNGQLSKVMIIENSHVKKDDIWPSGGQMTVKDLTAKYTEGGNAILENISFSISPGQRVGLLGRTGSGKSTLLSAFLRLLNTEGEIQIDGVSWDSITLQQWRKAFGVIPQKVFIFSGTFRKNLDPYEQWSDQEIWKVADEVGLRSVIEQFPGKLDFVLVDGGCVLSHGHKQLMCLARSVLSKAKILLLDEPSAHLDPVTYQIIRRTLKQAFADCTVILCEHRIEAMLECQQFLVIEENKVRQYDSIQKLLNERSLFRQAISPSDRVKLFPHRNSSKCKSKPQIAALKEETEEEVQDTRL
Description: Iodide efflux experiments were performed as described. Briefly, Cells (80-90% confluent) were incubated for 1 h in a loading buffer containing 136 mM NaI, 3 mM KNO3, 2 mM Ca(NO3)2, 11 mM glucose, and 20 mM Hepes, adjusted to pH 7.4 with NaOH. To remove extracellular iodide, cells were thoroughly washed with efflux buffer (136 mM NaNO3 replacing 136 mM NaI in the loading buffer) and then equilibrated in 2.5 ml efflux buffer for 1 min. The efflux buffer was changed at 1 min intervals over the duration of the experiment. Four minutes after anion substitution, cells were exposed to compound 1D. The amount of iodide in each 2.5 ml sample of efflux buffer was determined using an iodide-selective electrode (HNU Systems Ltd, Warrington, UK). Cells were loaded and experiments performed at room temperature.

hyaluronan exporter MRP5 = target: T2, hyaluronan exporter MRP5 (Homo sapiens, UniProt O15440); assay: Determination of hyaluronan export from human fibroblasts (ELISA of culture medium); format: cell-based; conditions: incubated two days with increasing concentrations; hyaluronan in culture supernatant
T2 construct: tested on human fibroblasts cultures for their influence on hyaluronan exporter MRP5; endogenous in cells; host or cells: human fibroblast cultures
T2 sequence (O15440 whole entry): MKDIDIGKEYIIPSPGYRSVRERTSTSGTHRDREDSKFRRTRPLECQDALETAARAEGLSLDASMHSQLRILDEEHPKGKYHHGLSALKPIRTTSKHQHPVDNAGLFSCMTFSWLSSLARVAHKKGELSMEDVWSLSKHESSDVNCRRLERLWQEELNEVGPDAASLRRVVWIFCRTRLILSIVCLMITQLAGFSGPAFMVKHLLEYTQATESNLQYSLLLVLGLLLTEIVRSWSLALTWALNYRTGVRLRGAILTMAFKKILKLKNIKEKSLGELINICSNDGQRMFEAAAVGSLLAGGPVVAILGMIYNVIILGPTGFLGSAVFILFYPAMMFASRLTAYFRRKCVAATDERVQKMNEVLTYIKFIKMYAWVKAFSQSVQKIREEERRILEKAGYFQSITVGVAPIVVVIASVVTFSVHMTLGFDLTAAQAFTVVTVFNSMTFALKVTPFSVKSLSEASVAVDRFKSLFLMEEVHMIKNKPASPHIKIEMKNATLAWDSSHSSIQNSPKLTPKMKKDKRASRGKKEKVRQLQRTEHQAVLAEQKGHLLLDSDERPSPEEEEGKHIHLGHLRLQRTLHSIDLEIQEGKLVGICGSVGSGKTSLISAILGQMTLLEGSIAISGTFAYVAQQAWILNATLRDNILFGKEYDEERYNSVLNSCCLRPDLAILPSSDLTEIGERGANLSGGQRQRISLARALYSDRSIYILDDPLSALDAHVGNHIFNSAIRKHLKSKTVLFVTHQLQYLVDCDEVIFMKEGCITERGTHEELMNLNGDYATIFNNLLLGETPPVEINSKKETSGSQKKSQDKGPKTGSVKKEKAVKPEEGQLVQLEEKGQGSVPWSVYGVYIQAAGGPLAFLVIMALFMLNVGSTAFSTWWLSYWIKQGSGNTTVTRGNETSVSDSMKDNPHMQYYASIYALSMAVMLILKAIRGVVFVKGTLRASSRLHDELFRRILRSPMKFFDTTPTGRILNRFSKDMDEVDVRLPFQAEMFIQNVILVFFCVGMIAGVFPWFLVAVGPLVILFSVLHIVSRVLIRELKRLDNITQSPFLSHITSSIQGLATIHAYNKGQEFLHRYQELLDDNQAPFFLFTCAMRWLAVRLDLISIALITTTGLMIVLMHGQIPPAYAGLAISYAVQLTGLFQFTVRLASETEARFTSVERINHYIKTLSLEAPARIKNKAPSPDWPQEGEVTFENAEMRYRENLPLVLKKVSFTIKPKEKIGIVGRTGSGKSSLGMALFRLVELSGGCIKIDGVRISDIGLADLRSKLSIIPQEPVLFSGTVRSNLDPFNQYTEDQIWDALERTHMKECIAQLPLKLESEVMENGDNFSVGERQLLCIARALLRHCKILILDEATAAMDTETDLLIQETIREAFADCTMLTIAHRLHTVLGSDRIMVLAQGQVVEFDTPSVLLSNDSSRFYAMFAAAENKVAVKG
Description: (§1) The cells were incubated for 24 hours at 37° C., the media were replaced with fresh media and after additional 24 hours aliquots (5 and 20 μl) of the culture medium were used for measurement of the hyaluronan concentration in the cell culture medium by an ELISA. The wells of a 96 well Covalink-NH-microtiter plate (NUNC) were coated with 100 μl of a mixture of […] of hyaluronan (Healon®), 9.2 μg/ml of N-Hydroxysuccin-imide-3-sulfonic acid and 615 μl/ml of 1-ethyl-3-(3-dimethylaminopropyl)-carbodiimide for 2 hours at room temperature and overnight at 4° C. The wells were washed three times with 2 M NaCl, 41 mM MgSO4, 0.05% Tween-20 in 50 mM phosphate buffered saline pH 7.2 (buffer A) and once with 2 M NaCl, 41 mM MgSO4, in phosphate buffered saline pH 7.2. Additional binding sites were blocked by incubation with 300 μl of 0.5% bovine serum albumin in phosphate buffered saline for 30 min at 37° C. Calibration of the assay was performed with standard concentrations of hyaluronan ranging from 15 ng/ml to 6000 ng/ml in equal volumes of culture medium as used for measurement of the cellular supernatants. […] The adsorption was read at 490 nm. The concentrations in the samples were calculated from a logarithmic regression curve of the hyaluronan standard solutions.

CFTR = target: T3, CFTR (Mus musculus, UniProt P26361); assay: Hyaluronan export through CFTR in a mouse fibroblasts cell line; format: cell-based
T3 construct: endogenous in cells
T3 sequence (P26361 whole entry): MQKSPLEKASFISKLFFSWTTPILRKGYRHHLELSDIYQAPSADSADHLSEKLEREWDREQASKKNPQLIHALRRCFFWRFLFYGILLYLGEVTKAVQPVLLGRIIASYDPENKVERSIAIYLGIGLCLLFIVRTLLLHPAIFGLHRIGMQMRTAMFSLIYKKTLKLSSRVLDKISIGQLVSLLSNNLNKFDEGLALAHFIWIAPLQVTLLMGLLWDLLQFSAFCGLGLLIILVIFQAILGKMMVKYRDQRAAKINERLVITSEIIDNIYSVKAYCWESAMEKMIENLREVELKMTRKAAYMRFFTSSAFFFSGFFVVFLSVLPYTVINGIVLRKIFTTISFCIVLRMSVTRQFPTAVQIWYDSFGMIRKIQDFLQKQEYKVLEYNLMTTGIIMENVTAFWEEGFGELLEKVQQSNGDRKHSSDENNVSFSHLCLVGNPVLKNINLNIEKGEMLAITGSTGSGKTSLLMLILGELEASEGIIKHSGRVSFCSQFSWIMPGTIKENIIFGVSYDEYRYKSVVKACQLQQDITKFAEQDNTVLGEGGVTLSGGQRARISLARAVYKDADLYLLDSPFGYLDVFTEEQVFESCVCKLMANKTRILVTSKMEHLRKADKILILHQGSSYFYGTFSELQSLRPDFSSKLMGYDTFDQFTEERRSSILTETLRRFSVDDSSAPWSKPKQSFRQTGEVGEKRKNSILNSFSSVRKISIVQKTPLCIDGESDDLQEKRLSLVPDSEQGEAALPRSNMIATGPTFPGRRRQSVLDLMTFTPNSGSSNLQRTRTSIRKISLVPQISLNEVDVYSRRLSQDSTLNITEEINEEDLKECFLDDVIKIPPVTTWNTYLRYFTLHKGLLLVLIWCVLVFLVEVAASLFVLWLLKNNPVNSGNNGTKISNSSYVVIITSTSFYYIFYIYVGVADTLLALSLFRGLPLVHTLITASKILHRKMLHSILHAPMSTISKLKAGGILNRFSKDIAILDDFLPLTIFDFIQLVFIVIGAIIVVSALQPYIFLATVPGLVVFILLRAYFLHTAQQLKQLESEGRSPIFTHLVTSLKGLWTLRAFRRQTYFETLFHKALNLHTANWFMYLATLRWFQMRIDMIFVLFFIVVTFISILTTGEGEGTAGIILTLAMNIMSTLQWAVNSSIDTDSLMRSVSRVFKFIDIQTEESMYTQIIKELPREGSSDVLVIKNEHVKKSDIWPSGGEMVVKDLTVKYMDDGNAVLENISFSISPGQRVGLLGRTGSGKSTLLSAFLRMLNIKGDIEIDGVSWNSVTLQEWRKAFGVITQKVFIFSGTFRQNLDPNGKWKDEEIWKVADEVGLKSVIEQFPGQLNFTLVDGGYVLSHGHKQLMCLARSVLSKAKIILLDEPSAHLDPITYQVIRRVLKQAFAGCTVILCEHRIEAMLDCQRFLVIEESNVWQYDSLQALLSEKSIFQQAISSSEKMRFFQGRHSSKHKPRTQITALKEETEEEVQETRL
Description: as §1

wildtype CFTR = target: T4, wildtype CFTR (Homo sapiens, UniProt P13569); assay: Western blotting of cell surface expressed CFTR, wildtype epithelial cells; format: cell-based; conditions: increasing concentration of compound
T4 construct: Human epithelial cells containing wildtype CFTR (16HBE14o-); endogenous in cells; host or cells: 16HBE14o- human epithelial cells (provided by Dr. D. C. Gruenert)
Description: (§2) Human epithelial cells containing wildtype CFTR (16HBE14o-) and the mutant cell line CFBE14o- were kindly provided by Dr. D. C. Gruenert. They were grown in suspension culture in Dulbeccós medium supplemented with streptomycin/penicillin (100 units of each/ml) and 10% foetal calf serum.
(§3) The cell pellets were solubilized by vortexing in buffer (Tris-HCl 0.06 M; 2% SDS, 10% glycerol, 0.1M dithiothreitol, 0.1% bromophenol-blue and the protease inhibitor cocktail, pH 6.8). Following centrifugation (2 min, 8.000 g) samples of the supernatant were separated on 10% poly-acrylamide slabgels. Proteins were subsequently electroblotted onto nitrocellulose paper in 0.025 M Tris, 0.192 M glycine, 20% methanol. The blots were incubated at 4° C. with 0.02M Tris-HCl, 0.15M NaCl, 0.1% Tween20, pH7.5 followed by overnight incubation at 4° C. with a 1:500 dilution of primary anti-CFTR antibody in 0.02M Tris-HCl, 0.15M NaCl, 0.1% Tween20, pH7.5. Blots were washed three times, incubated with peroxidase-conjugated anti-rabbit IgG for 2 h, and washed four times. Peroxidase activity was detected with […] reagent (ECL kit; Amersham, Braunschweig, Germany) on X-ray film.

ΔF508-CFTR [2] = target: T1, ΔF508-CFTR; assay: Western blotting of cell surface expressed CFTR, ΔF508-CFTR epithelial cells; format: cell-based
Description: as §2, §3

[3] = test system: wildtype HBE14o- cells (normal CFTR); assay: Transepithelial resistance of wildtype HBE14o- epithelial cells; format: cell-based, human
[4] = test system: mutant CFBE14o- cells (ΔF508-CFTR); assay: Transepithelial resistance of mutant CFBE14o- epithelial cells; format: cell-based, human
Description: as §2
A cell monolayer on a thin filter membrane (growth area, 4.2 cm2; pore diameter, 0.4 μm; thickness, 20 μm; Falcon, Heidelberg, Germany) served as a test barrier for the invasive capabilities of malignant cells. When confluent, these cells from a tight epithelial sheet with a high trans-epithelial electrical resistance (TEER), which was measured continuously using a STX-2 electrode (WPI, Sarasota, USA). Permeabilization of the epithelial cell layer (MDCK-C7 cells) due to the invasive activity of the melanoma cells can be determined by trans-epithelial electrical resistance (TEER) measurements, as previously reported [24;25].

[5] = Alamarblue cytotoxicity assay; format: cell-based; conditions: up to concentrations of 400 μM; data not shown
Description: In a preferred embodiment, the present invention relates to compounds 1B, 1C, 1D 1F and 1G. […] Compound 1D is particularly preferred.
The cytotoxicity of the drugs was measured as described.

nasal epithelium = assay: Transepithelial nasal resistance measured on the inventor; format: in vivo; conditions: human
Description: The effect of compound 1D was evaluated on the inventor of the present application by measurement of the transepithelial nasal resistance. This is a standard protocol for testing pharmaceutically active compounds on humans, (http://central.igc.gulbenkian.pt/cftr/vr/e/schuler_basic_protocol_for_measurement_of_transepithelial_nasal_potential_difference.pdf) (see also the results of FIG. 9).
The nasal epithelium was equilibrated with isotonic (0.9%) NaCl, 2 mM CaCl2. […] To determine the maximal possible potential differences in this experiment, the solution was changed to isotonic NaCl, 2 mM CaCl2 containing 10 μM amiloride that is known to close Na+ channels. […] After equilibration, the solution was changed to low salt with 0.09% NaCl, 0.2 mM CaCl2 containing 10 μM isoprenalol.

For `O=C(O)c1ccc(/C=C2\SC(=S)N(c3cccc(C(F)(F)F)c3)C2=O)cc1` [CFTR172, reference compound], the “effect on D4 activation of iodide efflux through F508-CFTR” value (ΔF508-CFTR [1]; simultaneous addition with D4) was “reduces the activation”.

In the case of `CC(=O)Nc1c(O)cccc1Oc1ccccc1C(=O)O` [Compound 1B, 2-(2-acetamido-3-hydroxyphenoxy)benzoic acid], the “iodide efflux from ΔF508-CFTR epithelial cells” value (ΔF508-CFTR [1]) is reported as “stimulates iodide efflux”.

With `CC(=O)Nc1c(O)cc(O)cc1Oc1ccc(N)cc1C(=O)O` [Compound 1D, 2-(2-acetamido-3,5-dihydroxyphenoxy)-5-aminobenzoic acid] the “activation of hyaluronan export from human fibroblasts” value (hyaluronan exporter MRP5) was “most active; also recorded: most activating”, the “hyaluronan export through CFTR” value (CFTR) was “activated” and the “expression of wildtype CFTR on the cell surface (Western blotting)” value (wildtype CFTR) was “slightly decreased”. The “concentration at which increase of membrane expression on ΔF508-CFTR epithelial cells was observed” value (ΔF508-CFTR [2]; Western blotting) was 100 µM, the “expression of ΔF508-CFTR on the cell surface / plasma membrane (Western blotting)” value (ΔF508-CFTR [2]; human epithelial cells, increasing concentration of compound) was “recruited to the plasma membrane; also recorded: enhanced; also recorded: restored plasma membrane expression” and the “iodide efflux from ΔF508-CFTR epithelial cells” value (ΔF508-CFTR [1]) was “stimulated a sudden burst of iodide efflux”. The “iodide efflux from ΔF508-CFTR epithelial cells” value (ΔF508-CFTR [1]; listed as D4) was “channels immediately open”, the “transepithelial resistance of epithelial cells containing normal CFTR, immediate effect” value ([3]; FIG. 10) was “drops immediately” and the “TER of normal cells over a period of 90 hours” value ([3]; FIG. 12) was “reduce the TER”. The “transepithelial resistance of ΔF508-CFTR epithelial cells over a longer time period” value ([4]; 100 μM) was “increase in transepithelial resistance; also recorded: long lasting rescue of ΔF508-CFTR”, the “transepithelial resistance of epithelial cells containing F508-CFTR” value ([4]; FIG. 10, compared to 8-Bromo-cAMP and control) was “resistance increases” and the “TER of F508-CFTR cells over a period of 90 hours” value ([4]; FIG. 12, versus control without any treatment) was “drops below the control”. The “toxicity (Alamarblue assay)” value [5] was “not toxic”, the transepithelial nasal resistance (nasal epithelium; 100 μM in isotonic NaCl, 2 mM CaCl2, after a transient increase) was “decreased below the equilibrating solution” and the “reversibility of the effect on transepithelial nasal resistance” value (nasal epithelium; wash out) was “reversible”.

In the case of `N=C(N)NC(=O)c1nc(Cl)c(N)nc1N` [amiloride, reference compound], the transepithelial nasal resistance (nasal epithelium; 10 μM in isotonic NaCl, 2 mM CaCl2) is reported as “increased to a maximal valued”.

For `CC(C)NCC(O)c1ccc(O)c(O)c1` (stereo not shown) [isoprenalol, reference compound], the transepithelial nasal resistance (nasal epithelium; 10 μM in low salt 0.09% NaCl, 0.2 mM CaCl2) was “maximal drop of the transepithelial resistance”.
